# Measured values published in patent US8445501B2, “Substituted 7-carboxamido-pyrrolo[3,2-d]pyrimidines” (Takeda GmbH, priority 2008, dated 2013).
# Biological target: T1, human PDE5 (Homo sapiens, UniProt O76074)
# T1 construct: from tissue; host or cells: platelets from fresh blood of human donors (lysate, 10,000 g supernatant)
# Experiment: Inhibition of the type 5 phosphodiesterase (PDE5) activity, modified SPA test with platelet lysate
# Assay type: biochemical
# Conditions: PDE5 from human platelet lysate, 0.5 μM cGMP
# Outline: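 Human platelet lysate (10,000 g supernatant) as PDE5 source in SPA with 0.5 μM cGMP plus [3H]cGMP tracer, pH 7.4, 5 mM Mg2+, 1 μM motapizone and 10 nM PDE2 inhibitor; 10–20% conversion. 5 min preincubation, 15 min at 37 °C, stopped with SPA beads/IBMX. IC50 by non-linear regression.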
Molecule,IC50 [nM],-log IC50 (mol/l)
"CC(=O)c1ccc(OCC2CC2)c(-c2ncnc3c(C(=O)NC4CCN(C(=O)[C@H](C)O)CC4)c[nH]c23)c1 [Example 264, 4-(5-Acetyl-2-cyclopropylmethoxy-phenyl)-5H-pyrrolo[3,2-d]pyrimidine-7-carboxylic acid [1-((S)-2-hydroxy-propanoyl)piperidin-4-yl]-amide]",0.219,–
"COCC(=O)N1CCC(NC(=O)c2c[nH]c3c(-c4cc(C(C)=O)ccc4OCC4CC4)ncnc23)CC1 [Example 265, 4-(5-Acetyl-2-cyclopropylmethoxy-phenyl)-5H-pyrrolo[3,2-d]pyrimidine-7-carboxylic acid [1-(2-methoxy-acetyl)piperidin-4-yl]-amide]",0.288,–
"CC(=O)c1ccc(OCC2CC2)c(-c2ncnc3c(C(=O)NC4CCN(C(C)=O)CC4)c[nH]c23)c1 [Example 266, 4-(5-Acetyl-2-cyclopropylmethoxy-phenyl)-5H-pyrrolo[3,2-d]pyrimidine-7-carboxylic acid (1-acetyl-piperidin-4-yl)-amide]",0.0794,–
"CC(=O)c1cc(-c2ncnc3c(C(=O)NC4CCN(C(=O)[C@H](C)O)CC4)c[nH]c23)c(OCC2CC2)cc1C [Example 267, 4-(5-Acetyl-2-cyclopropylmethoxy-4-methyl-phenyl)-5H-pyrrolo[3,2-d]pyrimidine-7-carboxylic acid [1-((S)-2-hydroxy-propionyl)piperidin-4-yl]-amide]",0.324,–
"CC(=O)c1cc(-c2ncnc3c(C(=O)NC4CCN(C(C)=O)CC4)c[nH]c23)c(OCC2CC2)cc1C [Example 268, 4-(5-Acetyl-2-cyclopropylmethoxy-4-methyl-phenyl)-5H-pyrrolo[3,2-d]pyrimidine-7-carboxylic acid (1-acetyl-piperidin-4-yl)-amide]",0.794,–
"COCCNC(=O)[C@H]1CC[C@H](NC(=O)c2c[nH]c3c(-c4c(OCC5CC5)ccc5c4OCO5)ncnc23)CC1 [Example 269, trans-4-(5-Cyclopropylmethoxy-benzo[1,3]dioxol-4-yl)-5H-pyrrolo[3,2-d]pyrimidine-7-carboxylic acid [4-(2-methoxy-ethylcarbamoyl)-cyclohexyl]-amide]",0.575,–
"O=C(N[C@H]1CC[C@H](C(=O)NC2CC2)CC1)c1c[nH]c2c(-c3c(OCC4CC4)ccc4c3OCO4)ncnc12 [Example 270, trans-4-(5-Cyclopropylmethoxy-benzo[1,3]dioxol-4-yl)-5H-pyrrolo[3,2-d]pyrimidine-7-carboxylic acid (4-cyclopropylcarbamoyl-cyclohexyl)-amide]",0.191,–
"COc1ccc(-c2ncnc3c(C(=O)N[C@H]4CC[C@H](C(=O)NC5CC5)CC4)c[nH]c23)c(OCC2CC2)c1 [Example 271, trans-4-(2-Cyclopropylmethoxy-4-methoxy-phenyl)-5H-pyrrolo[3,2-d]pyrimidine-7-carboxylic acid (4-cyclopropylcarbamoyl-cyclohexyl)-amide]",0.55,–
"COCCNC(=O)[C@H]1CC[C@H](NC(=O)c2c[nH]c3c(-c4ccc(OC)cc4OCC4CC4)ncnc23)CC1 [Example 272, trans-4-(2-Cyclopropylmethoxy-4-methoxy-phenyl)-5H-pyrrolo[3,2-d]pyrimidine-7-carboxylic acid [4-(2-methoxy-ethylcarbamoyl)-cyclohexyl]-amide]",0.708,–
"O=C(N[C@H]1CC[C@H](C(=O)NC2CC2)CC1)c1c[nH]c2c(-c3cc(F)ccc3OCC3CC3)ncnc12 [Example 273, trans-4-(2-Cyclopropylmethoxy-5-fluoro-phenyl)-5H-pyrrolo[3,2-d]pyrimidine-7-carboxylic acid (4-cyclopropylcarbamoyl-cyclohexyl)-amide]",2.19,–
"COCCNC(=O)[C@H]1CC[C@H](NC(=O)c2c[nH]c3c(-c4cc(F)ccc4OCC4CC4)ncnc23)CC1 [Example 274, trans-4-(2-Cyclopropylmethoxy-5-fluoro-phenyl)-5H-pyrrolo[3,2-d]pyrimidine-7-carboxylic acid [4-(2-methoxy-ethylcarbamoyl)-cyclohexyl]-amide]",5.25,–
"COCCNC(=O)[C@H]1CC[C@H](NC(=O)c2c[nH]c3c(-c4c(OCC5CCC5)ccc5c4OCO5)ncnc23)CC1 [Example 275, trans-4-(5-Cyclobutylmethoxy-benzo[1,3]dioxol-4-yl)-5H-pyrrolo[3,2-d]pyrimidine-7-carboxylic acid [4-(2-methoxy-ethylcarbamoyl)-cyclohexyl]-amide]",0.347,–
"O=C(N[C@H]1CC[C@H](C(=O)NC2CC2)CC1)c1c[nH]c2c(-c3c(OCC4CCC4)ccc4c3OCO4)ncnc12 [Example 276, trans-4-(5-Cyclobutylmethoxy-benzo[1,3]dioxol-4-yl)-5H-pyrrolo[3,2-d]pyrimidine-7-carboxylic acid (4-cyclopropylcarbamoyl-cyclohexyl)-amide]",0.166,–
"CC(=O)N1CCC(NC(=O)c2c[nH]c3c(-c4cc(F)c(O)cc4OCC4CC4)ncnc23)CC1 [Example 277, 4-(2-Cyclopropylmethoxy-5-fluoro-4-hydroxy-phenyl)-5H-pyrrolo[3,2-d]pyrimidine-7-carboxylic acid (1-acetyl-piperidin-4-yl)-amide]",93.3,–
"CCC(=O)N1CCC(NC(=O)c2c[nH]c3c(-c4cc(F)c(O)cc4OCC4CC4)ncnc23)CC1 [Example 278, 4-(2-Cyclopropylmethoxy-5-fluoro-4-hydroxy-phenyl)-5H-pyrrolo[3,2-d]pyrimidine-7-carboxylic acid (1-propionyl-piperidin-4-yl)-amide]",57.5,–
"CC(=O)N1CCC(NC(=O)c2c[nH]c3c(-c4cc(F)c(OC(F)F)cc4OCC4CC4)ncnc23)CC1 [Example 279, 4-[2-Cyclopropylmethoxy-4-(1,1-difluoro-methoxy)-5-fluoro-phenyl]-5H-pyrrolo[3,2-d]pyrimidine-7-carboxylic acid (1-acetyl-piperidin-4-yl)-amide]",2.34,–
"COCC(=O)N1CCC(NC(=O)c2c[nH]c3c(-c4cc(F)c(OC(F)F)cc4OCC4CC4)ncnc23)CC1 [Example 280, 4-[2-Cyclopropylmethoxy-4-(1,1-difluoro-methoxy)-5-fluoro-phenyl]-5H-pyrrolo[3,2-d]pyrimidine-7-carboxylic acid [1-(2-methoxy-ethanoyl)-piperidin-4-yl]amide]",1.74,–
"O=C(NC1CCN(C(=O)CO)CC1)c1c[nH]c2c(-c3cc(F)c(O)cc3OCC3CC3)ncnc12 [Example 281, 4-(2-Cyclopropylmethoxy-5-fluoro-4-hydroxy-phenyl)-5H-pyrrolo[3,2-d]pyrimidine-7-carboxylic acid [1-(2-hydroxy-acetyl)piperidin-4-yl]-amide]",851,–
"C[C@H](O)C(=O)N1CCC(NC(=O)c2c[nH]c3c(-c4cc(F)c(O)cc4OCC4CC4)ncnc23)CC1 [Example 282, 4-(2-Cyclopropylmethoxy-5-fluoro-4-hydroxy-phenyl)-5H-pyrrolo[3,2-d]pyrimidine-7-carboxylic acid [1-((S)-2-hydroxy-propionyl)piperidin-4-yl]-amide]",251,–
"O=C(NC1CCN(C(=O)CO)CC1)c1c[nH]c2c(-c3cc(F)c(OC(F)F)cc3OCC3CC3)ncnc12 [Example 283, 4-[2-Cyclopropylmethoxy-4-(1,1-difluoro-methoxy)-5-fluoro-phenyl]-5H-pyrrolo[3,2-d]pyrimidine-7-carboxylic acid [1-(2-hydroxy-acetyl)piperidin-4-yl]-amide]",5.13,–
"C[C@H](O)C(=O)N1CCC(NC(=O)c2c[nH]c3c(-c4cc(F)c(OC(F)F)cc4OCC4CC4)ncnc23)CC1 [Example 284, 4-[2-Cyclopropylmethoxy-4-(1,1-difluoro-methoxy)-5-fluoro-phenyl]-5H-pyrrolo[3,2-d]pyrimidine-7-carboxylic acid [1-((S)-2-hydroxy-propionyl)-piperidin-4-yl]-amide]",2.88,–
"trans-4-(2-Cyclopropylmethoxy-4-fluoro-phenyl)-5H-pyrrolo[3,2-d]pyrimidine-7-carboxylic acid [4-((S)-2-hydroxy-propionylamino)-cyclohexyl]-amide [Example 223]",–,8.46
